Laboratory results reported in BindingDB's records for doi:10.7270/Q2319T8T (The Scripps Research Institute Molecular Screening Center, 2007).

Target: Steroidogenic factor 1 (Homo sapiens, UniProt Q13285)
Test: blockers of SF-1 LBD reporter transcription – cell-based, CHO-K1, Gal4-SF-1 LBD, luciferase luminescence, dose response (AID 600)
[1] = inactive by the depositor's call

Chain of Steroidogenic factor 1 (Q13285 whole entry, the tested form may be a part): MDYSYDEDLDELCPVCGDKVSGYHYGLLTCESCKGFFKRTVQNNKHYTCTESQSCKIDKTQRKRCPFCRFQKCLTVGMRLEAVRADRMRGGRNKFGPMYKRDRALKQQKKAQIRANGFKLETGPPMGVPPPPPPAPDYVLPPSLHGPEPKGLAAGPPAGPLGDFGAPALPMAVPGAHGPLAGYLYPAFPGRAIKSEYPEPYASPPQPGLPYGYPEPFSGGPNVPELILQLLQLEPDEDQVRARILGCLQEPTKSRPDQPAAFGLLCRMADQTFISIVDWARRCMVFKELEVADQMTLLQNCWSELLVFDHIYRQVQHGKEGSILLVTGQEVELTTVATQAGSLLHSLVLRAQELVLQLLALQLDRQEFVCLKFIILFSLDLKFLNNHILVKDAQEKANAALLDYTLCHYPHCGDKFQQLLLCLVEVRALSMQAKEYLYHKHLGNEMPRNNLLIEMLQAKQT

IC50 [µM] | IC50 [1] [µM] | Compound
> 11 |  | Cc1sc(NC(=O)c2ccco2)c(C(c2cccnc2)N2CCN(c3ccc(F)cc3)CC2)c1C (stereo unspecified) [MLS000114428]
 | 13.7 | O=C(Nc1nnc(C2CC2)o1)c1ccc(S(=O)(=O)N2CCCc3ccccc32)cc1 [MLS000116109]
1.55 |  | O=C(Nc1nc2ccccc2[nH]1)c1ccccc1F [N-1,3-dihydro-2H-benzimidazol-2-ylidene-2-fluorobenzamide]
0.098 |  | N#Cc1c(NC(=O)CSc2nc[nH]n2)sc2c1CCCCC2 [N-(3-cyano-5,6,7,8-tetrahydro-4H-cyclohepta[b]thien-2-yl)-2-(1H-1,2,4-triazol-3-ylthio)acetamide]
 | 11.3 | Cc1ccc(-c2csc(N3CCC(NS(=O)(=O)c4ccc5c(c4)OCCO5)CC3)n2)cc1 [N-[1-[4-(4-methylphenyl)-1,3-thiazol-2-yl]piperidin-4-yl]-2,3-dihydro-1,4-benzodioxine-6-sulfonamide]
2.24 |  | c1ccc(N=C2N=C(Nc3ccccn3)c3ccccc32)nc1 [N-pyridin-2-yl-3-pyridin-2-yliminoisoindol-1-amine]
2.38 |  | c1ccc2nc(-c3nc4ccccc4[nH]3)ccc2c1 [SMR000008748]
5.11 |  | O=S1(=O)C=C(Sc2nc3cc(Cl)ccc3o2)c2ccccc21 [SMR000019512]
1.3 |  | CCCCS(=O)(=O)/C=C\C=C/S(=O)(=O)CCCC [SMR000020833]
 | 14.2 | CC(=O)c1c(C)[nH]c(C(=O)Nc2ccc(C)cn2)c1C [SMR000026816]
9.03 |  | c1ccc2c(c1)CCN(c1ncnc3c1[nH]c1ccccc13)C2 [SMR000039631]
> 11 |  | C/C(Cl)=C\Cn1c(NCCc2ccccc2)nc2c1c(=O)n(C)c(=O)n2C [SMR000044779]
> 3.67 |  | Cc1ccc2c(c1)[nH]c1c(N3CCN(Cc4ccccc4)CC3)ncnc12 [SMR000044826]
3.46 |  | c1ccc(-c2nc(N3CCCCCC3)c3ccccc3n2)nc1 [SMR000046752]
9.87 |  | COCCn1c(C)cc(C(=O)COC(=O)c2[nH]nc3ccccc23)c1C [SMR000068187]
> 3.67 |  | COc1cc(NS(=O)(=O)c2ccc(C)cc2)c2ncccc2c1 [SMR000071147]
 | 18.1 | C=CCOC(=O)c1[nH]c2c(c1C)C(=O)CC(c1cc(OC)c(OC)c(OC)c1)C2 (stereo unspecified) [SMR000093465]
5.25 |  | CC(C)(C)c1ccc(-c2cc(N)[nH]n2)cc1 [SMR000095263]
21.3 |  | CSC1=NC2=C(C(=O)CC(C)(C)C2)C(c2ccc(Cl)cc2)C1C#N (stereo unspecified) [SMR000102109]
2.1 |  | COc1nc(Nc2nc(O)c3ccccc3n2)nc2ccc(C)cc12 [SMR000108404]
0.315 |  | CCOC(=O)C(C)Oc1cccc2c(=O)n(CC(=O)NCc3ccc4c(c3)OCO4)ccc12 (stereo unspecified) [ethyl 2-[(2-{[(2H-1,3-benzodioxol-5-ylmethyl)carbamoyl]methyl}-1-oxo-1,2-dihydroisoquinolin-5-yl)oxy]propanoate]
23.5 |  | CCOC(=O)C1C(Cn2cnc3ccccc32)=NC(=O)NC1c1cc(C)ccc1C (stereo unspecified) [ethyl 6-(benzimidazol-1-ylmethyl)-4-(2,5-dimethylphenyl)-2-oxidanylidene-3,4-dihydro-1H-pyrimidine-5-carboxylate]
4.69 |  | COC(=O)/C(=C1/Oc2cc(C)oc(=O)c2S1)C(F)(F)F [methyl (2E)-3,3,3-tris(fluoranyl)-2-(6-methyl-4-oxidanylidene-[1,3]oxathiolo[4,5-c]pyran-2-ylidene)propanoate]
> 1.22 |  | CCCCCOC(=O)c1[nH]c2c(c1C)C(=O)CC(c1ccco1)C2 (stereo unspecified) [pentyl 6-(furan-2-yl)-3-methyl-4-oxidanylidene-1,5,6,7-tetrahydroindole-2-carboxylate]

Compound | IC50 [µM] | IC50 [1] [µM]
CN1C2C=C3C(C#N)=C(N)C(C#N)(C#N)[C@@H](c4ccc(Cl)cc4)[C@@H]3C1CC2 (stereo partly specified) [SMR000038778] | 3.35 | 
COc1cc([C@@H]2c3cc4c(cc3[C@H](O)[C@H]3COC(=O)[C@H]23)OCO4)cc(OC)c1OC [podophyllotoxin] | 0.0454 | 
